The results in this text go back to patent publication US8071099B2, “Anti-FLT3 antibodies” (ImClone, LLC, priority 2008, dated 2011).

One assay deals with SEM-K2 cells. Put plainly: Combination therapy with EB10 and MTX in SEM-K2 Leukemia Model. The format is in vivo, NOD/SCID mice. As to conditions: EB10 10 mg/kg i.p. 2×/week; MTX 100 mg/kg Q7D; combination of both. As to the method:
One day prior to the start of treatment, i.v. inject 65, 7 weeks old, male NOD/SCID mice with 5×10^5 SEM-K2 cells suspended in PBS in a total volume of 200 μl. Drop from the study mice receiving less than 90% of cells intravenously.
Prepare MTX (Sigma Chemical, Cat # M9929) in USP Saline at a concentration of 10 mg/ml and dose Q7D for three cycles. […] Dose all mice at 10 ml/kg i.p. In the combination group, dose MTX at least one hour before EB 10 treatment starting on day 1. Record mouse survival daily. Follow the mice for survival, and sacrifice any mouse displaying signs of morbidity/mortality; mark as dead on the day of sacrifice. End the study on day 168 and sacrifice any mice surviving to that point. Compare survival in the treatment groups by Log Rank Test between treatment groups.

Assay [1] deals with FLT3-negative JM1 or BaF3-control cell lines. Put plainly: Flow cytometric analysis, FLT3-negative cell lines. The format is binding. (In general: Flow cytometry measures light scatter and fluorescence of single cells or particles in a stream.)
A further assay has as its system BaF3-ITD cells. The assay is described as follows: Cell proliferation assay ([3H]-thymidine), FL-independent, BaF3-ITD. The format is cell-based. The procedure: Harvest EOL-1 cells and wash three times using serum-free RPMI 1640 medium. Culture cells in serum-free RPMI 1640 medium for 12 hours. For BaF3-ITD cells, perform the proliferation assay in RPMI 1640 medium supplemented with 10% FCS in the absence of exogenous FL. Reconstitute cells in serum-free AIM-V medium, plate in triplicates in a flat-bottomed 96-well plate (1×104/100 μl/well) and incubate with varying concentrations of antibodies (from 0 to 100 nM) and 30 ng/ml of FL at 37° C. for 68 hours. As a background control, incubate cells with medium alone in the absence of exogenous FL. Pulse cells with 0.25 μCi/well of [^3H]-thymidine for 4 hours. Harvest cells and measure cpm in a PerkinElmer Wallace-1205 Betaplate Liquid Scintillation Counter (Wellesley, Mass.). Calculate the percent inhibition of FL-induced proliferation for EOL-1 cells; deduce the cpm of background proliferation (i.e., cell samples not stimulated with FL) from the cpm of all experimental samples. Calculate percent inhibition using the following formula: [(cpm of untreated sample—cpm of antibody-treated sample)/cpm of untreated sample]×100%.

The test system of the next assay is EOL-1 leukemia cells. Put plainly: EOL-1 Xenograft Human AML Leukemia Model. The format is in vivo, NOD-SCID mice. As to conditions: 10 μg. A general note: A xenograft is tissue or cells of one species grown in another, often human tumour cells in immunodeficient mice.
Another assay has as its system Human Leukemia Cells. The assay is described as follows: Bone Marrow Engraftment of Human Leukemia Cells. As to conditions: 500 μg/dose, versus control-IgG treated group. The format is in vivo, mice. The procedure:
Bone Marrow Engraftment of Human Leukemia Cells: Harvest bone marrow from the femurs of EB10-treated mice (500 μg/dose) and the control-IgG treated group at day 20. Analyze cells for human CD45 by flow cytometry at 6 and 14 weeks post leukemia cell injection for the degree of tumor cell infiltration of bone marrow. Compare the degree of tumor cell infiltration of bone marrow using immunohistochemical staining with a fluorescence-labeled anti-human CD45 antibody.

Turning to `CN(Cc1cnc2nc(N)nc(N)c2n1)c1ccc(C(=O)N[C@@H](CCC(=O)O)C(=O)O)cc1` [MTX, methotrexate, reference compound], the “mouse survival” value in the assay with SEM-K2 cells is on record as “also prolonged survival”.

As to “EB10: recombinant human monoclonal antibody, full length IgG1κ targeting human FLT3; heavy chain SEQ ID NO:25, light chain SEQ ID NO:28”, the “binding by flow cytometric analysis” value in assay [1] (BaF3-control cell line) and in assay [1] (FLT3-negative JM1 cell line) was “No binding” in each case. Further, the “% Inhibition of FL-independent proliferation (Mean ± Standard deviation)” value came to 9.6 ± 3.1% in the assay with BaF3-ITD cells (6 nM); 13.0 ± 4.0% in the assay on BaF3-ITD cells (13 nM); 23.3 ± 0.6% in the assay on BaF3-ITD cells (25 nM); 28.6 ± 3.1% in the assay on BaF3-ITD cells (50 nM); 29.2 ± 3.0% in the assay with BaF3-ITD cells (100 nM). The “effect on survival” value in the assay on EOL-1 leukemia cells is listed as “No effect”. Also, the “number of tumor cells in bone marrow (human CD45)” value with Human Leukemia Cells was “decreased significantly”. In addition, the “mouse survival” value with SEM-K2 cells is reported as “significantly prolonged mouse survival”.
